Test results reported in patent US9113629B2, “4-amino-6-(4-substituted-phenyl)-picolinates and 6-amino-2-(4-substituted-phenyl)-pyrimidine-4-carboxylates and their use as herbicides” (DOW AGROSCIENCES LLC, priority 2013, dated 2015).
Like-named read-outs stand apart in the source and are kept apart here.

Legend:
[1] = test system: Key Grass and Sedge Weeds as well as Grass Crops; test: Post-emergent Test II herbicidal activity (Table 6); assay type: in vivo; details: post-emergence, 336 h; for pest or weed control at 70 g/ha: 70 g ai/ha; for pest or weed control at 140 g/ha: 140 g ai/ha
Procedure, shortened: (§1)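 Visual injury ratings (0 = no injury, 100 = complete kill) were taken 14 d after treatment, relative to untreated plants. Seedlings at the first–second true leaf stage received overhead spray at 187 L/ha; the highest rate was serially diluted to ½×, ¼×, ⅛× and 1/16×.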

[2] = test system: Key Broadleaf Weed and Crop Species; test: Post-emergent Test II herbicidal activity (Table 5); assay type: in vivo; details: post-emergence, 336 h, 14 days after application; for pest or weed control at 70 g/ha: application rate 70 g ai/ha; for pest or weed control at 140 g/ha: application rate 140 g ai/ha
Procedure, shortened: as §1

[3] = CYPES: yellow nutsedge (Cyperus esculentus), read-out: Visual Growth Reduction (%) 14 Days After Application, CYPES
[4] = DIGSA: crabgrass (Digitaria sanguinalis), read-out: Visual Growth Reduction (%) 14 Days After Application, DIGSA
[5] = ECHCG: barnyardgrass (Echinochloa crus-galli), read-out: Visual Growth Reduction (%) 14 Days After Application, ECHCG
[6] = ORYSA: rice (Oryza sativa), crop, read-out: Visual Growth Reduction (%) 14 Days After Application, ORYSA
[7] = SETFA: giant foxtail (Setaria faberi), read-out: Visual Growth Reduction (%) 14 Days After Application, SETFA
[8] = SORVU: grain sorghum (Sorghum vulgare), read-out: Visual Growth Reduction (%) 14 Days After Application, SORVU
[9] = TRZSS (wheat, Triticum aestivum), crop, read-out: Visual Growth Reduction (%) 14 Days After Application, TRZSS
[10] = ZEAMX: maize, corn (Zea mays), crop, read-out: Visual Growth Reduction (%) 14 Days After Application, ZEAMX
[11] = ABUTH: velvetleaf (Abutilon theophrasti), read-out: Visual Growth Reduction (%) 14 Days After Application, ABUTH
[12] = AMARE: redroot pigweed (Amaranthus retroflexus), read-out: Visual Growth Reduction (%) 14 Days After Application, AMARE
[13] = BRSNN: oilseed-rape, canola (Brassica napus), read-out: Visual Growth Reduction (%) 14 Days After Application, BRSNN
[14] = CHEAL: lambsquarters (Chenopodium album), read-out: Visual Growth Reduction (%) 14 Days After Application, CHEAL
[15] = EPHHL: wild poinsettia (Euphorbia heterophylla), read-out: Visual Growth Reduction (%) 14 Days After Application, EPHHL
[16] = HELAN: sunflower (Helianthus annuus), read-out: Visual Growth Reduction (%) 14 Days After Application, HELAN
[17] = VIOTR: wild pansy (Viola tricolor), read-out: Visual Growth Reduction (%) 14 Days After Application, VIOTR

COC(=O)c1nc(-c2ccc(C#N)cc2)c(F)c(N)c1Cl [Compound 142]
pest or weed control at 70 g/ha [1, 3]: 75 to 84% | pest or weed control at 140 g/ha [1, 3]: 85 to 94% | pest or weed control at 70 g/ha [1, 4]: 60 to 74% | pest or weed control at 140 g/ha [1, 4]: 60 to 74% | pest or weed control at 70 g/ha [1, 5]: 75 to 84% | pest or weed control at 140 g/ha [1, 5]: 85 to 94% | pest or weed control at 70 g/ha [1, 6]: 0 to 29% | pest or weed control at 140 g/ha [1, 6]: 0 to 29% | pest or weed control at 70 g/ha [1, 7]: 0 to 29% | pest or weed control at 140 g/ha [1, 7]: 0 to 29% | pest or weed control at 70 g/ha [1, 8]: 45 to 59% | pest or weed control at 140 g/ha [1, 8]: 45 to 59% | pest or weed control at 70 g/ha [1, 9]: 0 to 29% | pest or weed control at 140 g/ha [1, 9]: 30 to 44% | pest or weed control at 70 g/ha [1, 10]: 45 to 59% | pest or weed control at 140 g/ha [1, 10]: 60 to 74% | pest or weed control at 70 g/ha [2, 11]: 95 to 100% | pest or weed control at 140 g/ha [2, 11]: 95 to 100% | pest or weed control at 70 g/ha [2, 12]: 95 to 100% | pest or weed control at 140 g/ha [2, 12]: 95 to 100% | pest or weed control at 70 g/ha [2, 13]: 0 to 29% | pest or weed control at 140 g/ha [2, 13]: 0 to 29% | pest or weed control at 70 g/ha [2, 14]: 95 to 100% | pest or weed control at 140 g/ha [2, 14]: 95 to 100% | pest or weed control at 70 g/ha [2, 15]: 95 to 100% | pest or weed control at 140 g/ha [2, 15]: 95 to 100% | pest or weed control at 70 g/ha [2, 16]: 95 to 100% | pest or weed control at 140 g/ha [2, 16]: 95 to 100% | pest or weed control at 70 g/ha [2, 17]: 75 to 84% | pest or weed control at 140 g/ha [2, 17]: 85 to 94%
